Results from patent US20250041216A1, “Methotrexate Composition” (Rosemont Pharmaceuticals Ltd., priority 2012, published 2025).

Experiment: Stability studies of example 1 formulation at different pH and buffer strength, visual precipitate (Table 3)
Assay type: physicochemical
Conditions: pH values below 6.0, over time
Method: Batches were prepared at various pHs in the range 5.6-6.0 and were prepared at ½, 1/10th and 1/20th the original buffer strength of example 1 (i.e. the citric acid monohydrate and disodium hydrogen phosphate dihydrate buffer system). The original buffer strength was taken from a citrate-phosphate buffer table (http://microscopy.berkeley.edu/Resources/instruction/buffers.html).
The stability studies were undertaken using the example 1 formulation but using either a citrate-phosphate buffer system at half the strength (i.e. 43 mmol) or 1/10th of the strength (i.e. 8.7 mmol) compared to that of example 1. The formulations were adjusted to 5 different pH values; 5.6, 5.7, 5.8, 5.9 and 6.0. One set of formulations were stored at 5° C. and one set of formulations were stored at 25° C. for each buffer strength and each pH value for the duration of the study. The study took place over a 6-month time period.

Precipitation out of solution: precipitate out of solution over time
Compound: CN(Cc1cnc2nc(N)nc(N)c2n1)c1ccc(C(=O)N[C@@H](CCC(=O)O)C(=O)O)cc1 [Methotrexate]
